Reference: US20250288683A1, “TETRAHYDROISOQUINOLINE HETEROBIFUNCTIONAL BCL-XL DEGRADERS” (Treeline Biosciences, Inc., priority 2022, published 2025)

Target: T1, Human BCL-XL protein (N-terminal HiBiT tagged BCL-XL in HT1080 cells) (Homo sapiens, UniProt Q07817)
T1 construct: expressed in transfected cells; host or cells: HT-1080 (ATCC CCL-121), stably transduced with lentivirus pLV-UBC-N-HiBiT-BCL-XL-PGK-puro and selected with puromycin
Experiment: HiBiT based degradation assay
Assay type: cell-based
Settings: HT1080 cells expressing N-terminal HiBiT tagged BCL-XL, normalized with DMSO control
Excerpt: HiBiT Based Degradation Assay
Human BCL-XL protein coding open reading frame fused with N-terminal HiBiT coding sequence was synthesized from Integrated DNA Technologies (IDT). Next, N-HiBiT-BCL-XL sequence was cloned into pLV-UBC-PGK-Puro, a lentivirus plasmid purchased from Vectorbuilder, to generate pLV-UBC-N-HiBiT-BCL-XL-PGK-puro. Lentiviral particles were generated from Lenti-X™ 293T cells (Clontech) by co-transfection of pLV-UBC-N-HiBiT-BCL-XL-PGK-puro plasmids and lentiviral packaging plasmid mix (Cellecta). HT-1080 [HT1080](ATCC CCL-121) cells were infected with the lentivirus, and HT1080 cells stably integrated with the lentiviral vectors were established by incubation with 1 μg/mL puromycin (Thermofisher).
HT1080 cells expressing N-terminal HiBiT tagged BCL-XL were dispensed into a 384-well plate pre-spotted with compounds at varying concentrations. Three thousand cells were seeded into each well in 40 μL of RPMI 1640 media. […] After incubation, luminescence was read on a PHERAstar FSX Plate Reader (BMG). BCL-XL degradation at each indicated concentration was normalized with the DMSO control. The BCL-XL degradation curves were plotted using a four-parameter logistic model. For compounds displaying hook effects, the curve fitting was performed using the bottom point of the hook curves (i.e., the point of Ymin) as the bottom plateau to calculate EC50.

T1 sequence (Q07817 whole entry): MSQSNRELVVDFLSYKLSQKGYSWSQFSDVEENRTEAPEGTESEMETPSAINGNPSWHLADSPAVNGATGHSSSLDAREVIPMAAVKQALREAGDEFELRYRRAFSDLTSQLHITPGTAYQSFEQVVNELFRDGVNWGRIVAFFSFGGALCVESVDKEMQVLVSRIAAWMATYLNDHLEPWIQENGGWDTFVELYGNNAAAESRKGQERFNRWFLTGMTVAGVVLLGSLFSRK

Row | Ymin (24 h) | Ymin (6 h) | Compound
1 | B (50% ≤ Ymin < 70%) |  | Cc1ncsc1-c1ccc([C@H](C)NC(=O)[C@@H]2C[C@@H](O)CN2C(=O)[C@@H](NC(=O)C(F)(F)C[C@H]2CC[C@H](Oc3cccc(-c4ccc(N5CCc6cccc(C(=O)Nc7nc8ccccc8s7)c6C5)nc4C(=O)O)c3C)CC2)C(C)(C)C)cc1 [Compound 117a, 6-(8-(benzo[d]thiazol-2-ylcarbamoyl)-3,4-dihydroisoquinolin-2 (1H)-yl)-3-(3-(((1S,4r)-4-(2,2-difluoro-3-(((S)-1-((2S,4R)-4-hydroxy-2-(((S)-1-(4-(4-methylthiazol-5-yl)phenyl)ethyl)carbamoyl)pyrrolidin-1-yl)-3,3-dimethyl-1-oxobutan-2-yl)amino)-3-oxopropyl)cyclohexyl)oxy)-2-methylphenyl)picolinic acid]
2 |  | A (Ymin < 50%) | Cc1ncsc1-c1ccc([C@H](C)NC(=O)[C@@H]2C[C@@H](O)CN2C(=O)[C@@H](NC(=O)CCCCCCCCCNC(=O)c2nc(N3CCc4cccc(C(=O)Nc5nc6ccccc6s5)c4C3)ccc2-c2cnn(Cc3ccccc3)c2C)C(C)(C)C)cc1 [Compound 110a, N-(benzo[d]thiazol-2-yl)-2-(5-(1-benzyl-5-methyl-1H-pyrazol-4-yl)-6-((10-(((S)-1-((2S,4R)-4-hydroxy-2-(((S)-1-(4-(4-methylthiazol-5-yl)phenyl)ethyl)carbamoyl)pyrrolidin-1-yl)-3,3-dimethyl-1-oxobutan-2-yl)amino)-10-oxodecyl)carbamoyl)pyridin-2-yl)-1,2,3,4-tetrahydroisoquinoline-8-carboxamide]
3 |  | A (Ymin < 50%) | Cc1ncsc1-c1ccc([C@H](C)NC(=O)[C@@H]2C[C@@H](O)CN2C(=O)[C@@H](NC(=O)CCCCCCCCCCCCCCCn2nc(C)c(-c3ccc(N4CCc5cccc(C(=O)Nc6nc7ccccc7s6)c5C4)nc3C(=O)O)c2C)C(C)(C)C)cc1 [Compound 102a, 6-[8-(1,3-Benzothiazol-2-ylcarbamoyl)-3,4-dihydro-1H-isoquinolin-2-yl]-3-[1-[16-[[(1S)-1-[(2S,4R)-4-hydroxy-2-[[(1S)-1-[4-(4-methylthiazol-5-yl)phenyl]ethyl]carbamoyl]pyrrolidine-1-carbonyl]-2,2-dimethyl-propyl]amino]-16-oxo-hexadecyl]-3,5-dimethyl-pyrazol-4-yl]pyridine-2-carboxylic acid]
4 | C (Ymin ≥ 70%) |  | Cc1ncsc1-c1ccc([C@H](C)NC(=O)[C@@H]2C[C@@H](O)CN2C(=O)[C@@H](NC(=O)C(C)(C)[C@H]2CC[C@H](Oc3cccc(-c4ccc(N5CCc6cccc(C(=O)Nc7nc8ccccc8s7)c6C5)nc4C(=O)O)c3C)CC2)C(C)(C)C)cc1 (single isomer, unassigned) [Compound 138b]
5 | B (50% ≤ Ymin < 70%) |  | Cc1ncsc1-c1ccc([C@H](C)NC(=O)[C@@H]2C[C@@H](O)CN2C(=O)[C@@H](n2cc(CCc3ccc(Oc4cccc(-c5ccc(N6CCc7cccc(C(=O)Nc8nc9ccccc9s8)c7C6)nc5C(=O)O)c4C)cc3)nn2)C(C)(C)C)cc1 [Compound 132a, 6-(8-(benzo[d]thiazol-2-ylcarbamoyl)-3,4-dihydroisoquinolin-2 (1H)-yl)-3-(3-(4-(2-(1-((S)-1-((2S,4R)-4-hydroxy-2-(((S)-1-(4-(4-methylthiazol-5-yl)phenyl)ethyl)carbamoyl)pyrrolidin-1-yl)-3,3-dimethyl-1-oxobutan-2-yl)-1H-1,2,3-triazol-4-yl)ethyl)phenoxy)-2-methylphenyl)picolinic acid]
6 | B (50% ≤ Ymin < 70%) |  | Cc1ncsc1-c1ccc([C@H](C)NC(=O)[C@@H]2C[C@@H](O)CN2C(=O)[C@@H](NC(=O)C(C)(C)CCc2ccc(Oc3cccc(-c4ccc(N5CCc6cccc(C(=O)Nc7nc8ccccc8s7)c6C5)nc4C(=O)O)c3C)cc2)C(C)(C)C)cc1 [Compound 133a, 6-[8-(1,3-benzothiazol-2-ylcarbamoyl)-3,4-dihydro-1H-isoquinolin-2-yl]-3-[3-[4-[4-[[(1S)-1-[(2S,4R)-4-hydroxy-2-[[(1S)-1-[4-(4-methylthiazol-5-yl)phenyl]ethyl]carbamoyl]pyrrolidine-1-carbonyl]-2,2-dimethyl-propyl]amino]-3,3-dimethyl-4-oxo-butyl]phenoxy]-2-methyl-phenyl]pyridine-2-carboxylic acid]
7 | A (Ymin < 50%) |  | Cc1ncsc1-c1ccc([C@H](C)NC(=O)[C@@H]2C[C@@H](O)CN2C(=O)[C@@H](NC(=O)[C@H](C)CCc2ccc(Oc3cccc(-c4ccc(N5CCc6cccc(C(=O)Nc7nc8ccccc8s7)c6C5)nc4C(=O)O)c3C)cc2)C(C)(C)C)cc1 (single isomer, unassigned) [Compound 143a]
8 | A (Ymin < 50%) |  | Cc1ncsc1-c1ccc([C@H](C)NC(=O)[C@@H]2C[C@@H](O)CN2C(=O)[C@@H](NC(=O)C(C)(C)[C@H]2CC[C@@H](Oc3cccc(-c4ccc(N5CCc6cccc(C(=O)Nc7nc8ccccc8s7)c6C5)nc4C(=O)O)c3C)CC2)C(C)(C)C)cc1 (single isomer, unassigned) [Compound 138a]
9 | A (Ymin < 50%) |  | Cc1ncsc1-c1ccc(CNC(=O)[C@@H]2C[C@@H](O)CN2C(=O)[C@@H](NC(=O)C2(F)CC2)C(C)(C)SCCCCCCCCOc2cccc(-c3ccc(N4CCc5cccc(C(=O)Nc6nc7ccccc7s6)c5C4)nc3C(=O)O)c2C)cc1 [Compound 136a, 6-(8-(benzo[d]thiazol-2-ylcarbamoyl)-3,4-dihydroisoquinolin-2 (1H)-yl)-3-(3-((8-(((R)-3-(1-fluorocyclopropane-1-carboxamido)-4-((2S,4R)-4-hydroxy-2-((4-(4-methylthiazol-5-yl)benzyl)carbamoyl)pyrrolidin-1-yl)-2-methyl-4-oxobutan-2-yl)thio)octyl)oxy)-2-methylphenyl)picolinic acid]
10 | A (Ymin < 50%) |  | Cc1ncsc1-c1ccc([C@H](C)NC(=O)[C@@H]2C[C@@H](O)CN2C(=O)[C@@H](NC(=O)CC[C@@H](c2ccc(Oc3cccc(-c4ccc(N5CCc6cccc(C(=O)Nc7nc8ccccc8s7)c6C5)nc4C(=O)O)c3C)cc2)C(F)(F)F)C(C)(C)C)cc1 (relative stereo) [Compound 135a, 6-(8-(benzo[d]thiazol-2-ylcarbamoyl)-3,4-dihydroisoquinolin-2 (1H)-yl)-3-(2-methyl-3-(4-((S)-1,1,1-trifluoro-5-(((S)-1-((2S,4R)-4-hydroxy-2-(((S)-1-(4-(4-methylthiazol-5-yl)phenyl)ethyl)carbamoyl)pyrrolidin-1-yl)-3,3-dimethyl-1-oxobutan-2-yl)amino)-5-oxopentan-2-yl)phenoxy)phenyl)picolinic acid]
11 | A (Ymin < 50%) | A (Ymin < 50%) | Cc1ncsc1-c1ccc([C@H](C)NC(=O)[C@@H]2C[C@@H](O)CN2C(=O)[C@@H](NC(=O)CCCc2ccc(Oc3cccc(-c4ccc(N5CCc6cccc(C(=O)Nc7nc8ccccc8s7)c6C5)nc4C(=O)O)c3C)cc2)C(C)(C)C)cc1 [Compound 115a, 6-(8-(benzo[d]thiazol-2-ylcarbamoyl)-3,4-dihydroisoquinolin-2 (1H)-yl)-3-(3-(4-(4-(((S)-1-((2S,4R)-4-hydroxy-2-(((S)-1-(4-(4-methylthiazol-5-yl)phenyl)ethyl)carbamoyl)pyrrolidin-1-yl)-3,3-dimethyl-1-oxobutan-2-yl)amino)-4-oxobutyl)phenoxy)-2-methylphenyl)picolinic acid]
12 | B (50% ≤ Ymin < 70%) |  | Cc1ncsc1-c1ccc(CNC(=O)[C@@H]2C[C@@H](O)CN2C(=O)[C@@H](NC(=O)C2(F)CC2)C(C)(C)SCCCCCCCCCCOc2cccc(-c3ccc(N4CCc5cccc(C(=O)Nc6nc7ccccc7s6)c5C4)nc3C(=O)O)c2C)cc1 [Compound 137a, 6-(8-(benzo[d]thiazol-2-ylcarbamoyl)-3,4-dihydroisoquinolin-2 (1H)-yl)-3-(3-((10-(((R)-3-(1-fluorocyclopropane-1-carboxamido)-4-((2S,4R)-4-hydroxy-2-((4-(4-methylthiazol-5-yl)benzyl)carbamoyl)pyrrolidin-1-yl)-2-methyl-4-oxobutan-2-yl)thio)decyl)oxy)-2-methylphenyl)picolinic acid]

Row | Compound | Ymin (24 h) | Ymin (6 h)
13 | Cc1ncsc1-c1ccc([C@H](C)NC(=O)[C@@H]2C[C@@H](O)CN2C(=O)[C@@H](NC(=O)CCCCOc2cccc(-c3ccc(N4CCc5cccc(C(=O)Nc6nc7ccccc7s6)c5C4)nc3C(=O)O)c2C)C(C)(C)C)cc1 [Compound 108a, 6-[8-(1,3-benzothiazol-2-ylcarbamoyl)-3,4-dihydro-1H-isoquinolin-2-yl]-3-[3-[5-[[(1S)-1-[(2S,4R)-4-hydroxy-2-[[(1S)-1-[4-(4-methylthiazol-5-yl)phenyl]ethyl]carbamoyl]pyrrolidine-1-carbonyl]-2,2-dimethyl-propyl]amino]-5-oxo-pentoxy]-2-methyl-phenyl]pyridine-2-carboxylic acid] | A (Ymin < 50%) | A (Ymin < 50%)
